Experimental data reported in BigSolDB 2.1.

O=C(Nc1ccc(F)cc1F)c1cccnc1Oc1cccc(C(F)(F)F)c1
solubility (mole fraction)
Conditions | 278.15 K | 283.15 K | 288.15 K | 293.15 K | 298.15 K | 303.15 K | 308.15 K | 313.15 K | 318.15 K | 323.15 K
in ethanol | 0.000246 | 0.000325 | 0.000425 | 0.00055 | 0.000703 | 0.000894 | 0.00113 | 0.00142 | 0.00177 | 0.0022
in ethyl acetate | 0.0105 | 0.0125 | 0.015 | 0.0176 | 0.0206 | 0.024 | 0.0281 | 0.0322 | 0.0371 | 0.0429
in isopropanol | 4.4e-05 | 7.09e-05 | 0.000114 | 0.000186 | 0.000292 | 0.000456 | 0.00069 | 0.00104 | 0.00158 | 0.00232
in methanol | 0.000223 | 0.0003 | 0.000385 | 0.000489 | 0.000633 | 0.000799 | 0.000999 | 0.00125 | 0.00155 | 0.00193
in water | 1.52e-07 | 2e-07 | 2.53e-07 | 3.15e-07 | 3.93e-07 | 4.84e-07 | 5.94e-07 | 7.19e-07 | 8.81e-07 | 1.07e-06
